Experimental data from the NIST ThermoML archive (doi:10.1016/j.jct.2006.05.008).
Numbers after ± are expanded uncertainties.

Test: molar heat capacity at constant pressure
Details: 101.33 kPa

CCC[n+]1ccn(C)c1.[Br-] [1-methyl-3-propylimidazolium bromide]
Details | molar heat capacity at constant pressure [J/K/mol]
199.31 K, Crystal, Vacuum adiabatic calorimetry | 164.75 ± 0.37
199.46 K, Glass, Small (less than 1 g) adiabatic calorimetry | 175.22 ± 0.9
200.05 K, Glass, Small (less than 1 g) adiabatic calorimetry | 176.21 ± 0.9
200.67 K, Crystal, Vacuum adiabatic calorimetry | 166 ± 0.37
200.97 K, Metastable crystal, Small (less than 1 g) adiabatic calorimetry | 168.83 ± 0.88
201.03 K, Crystal, Vacuum adiabatic calorimetry | 166.26 ± 0.37
201.36 K, Crystal, Vacuum adiabatic calorimetry | 166.53 ± 0.37
202.03 K, Crystal, Vacuum adiabatic calorimetry | 167.06 ± 0.37
202.22 K, Glass, Small (less than 1 g) adiabatic calorimetry | 178.79 ± 0.92
202.47 K, Glass, Small (less than 1 g) adiabatic calorimetry | 180.24 ± 0.93
203.09 K, Crystal, Vacuum adiabatic calorimetry | 167.78 ± 0.37
203.39 K, Crystal, Vacuum adiabatic calorimetry | 168.1 ± 0.37
203.43 K, Crystal, Vacuum adiabatic calorimetry | 167.91 ± 0.37
203.43 K, Metastable crystal, Small (less than 1 g) adiabatic calorimetry | 170.24 ± 0.88
204.75 K, Crystal, Vacuum adiabatic calorimetry | 169.11 ± 0.37
204.84 K, Glass, Small (less than 1 g) adiabatic calorimetry | 187.91 ± 0.96
204.96 K, Glass, Small (less than 1 g) adiabatic calorimetry | 184.36 ± 0.94
205.16 K, Crystal, Vacuum adiabatic calorimetry | 169.18 ± 0.37
205.49 K, Crystal, Vacuum adiabatic calorimetry | 169.21 ± 0.37
205.88 K, Metastable crystal, Small (less than 1 g) adiabatic calorimetry | 171.68 ± 0.89
206.12 K, Crystal, Vacuum adiabatic calorimetry | 170 ± 0.37
207.12 K, Glass, Small (less than 1 g) adiabatic calorimetry | 199.89 ± 1
207.47 K, Crystal, Vacuum adiabatic calorimetry | 170.79 ± 0.37
207.56 K, Crystal, Vacuum adiabatic calorimetry | 170.75 ± 0.37
207.61 K, Glass, Small (less than 1 g) adiabatic calorimetry | 196 ± 1
208.34 K, Metastable crystal, Small (less than 1 g) adiabatic calorimetry | 173.15 ± 0.89
208.84 K, Crystal, Vacuum adiabatic calorimetry | 171.68 ± 0.37
209.31 K, Glass, Small (less than 1 g) adiabatic calorimetry | 214.39 ± 1.1
209.63 K, Crystal, Vacuum adiabatic calorimetry | 172.23 ± 0.37
210.02 K, Glass, Small (less than 1 g) adiabatic calorimetry | 225.97 ± 1.1
210.2 K, Crystal, Vacuum adiabatic calorimetry | 172.56 ± 0.37
210.79 K, Metastable crystal, Small (less than 1 g) adiabatic calorimetry | 174.52 ± 0.9
211.34 K, Glass, Small (less than 1 g) adiabatic calorimetry | 239.57 ± 1.2
211.57 K, Crystal, Vacuum adiabatic calorimetry | 173.4 ± 0.37
211.7 K, Crystal, Vacuum adiabatic calorimetry | 173.55 ± 0.37
212.2 K, Liquid, Small (less than 1 g) adiabatic calorimetry | 259.73 ± 1.2
212.93 K, Crystal, Vacuum adiabatic calorimetry | 174.3 ± 0.38
213.23 K, Metastable crystal, Small (less than 1 g) adiabatic calorimetry | 176.24 ± 0.9
213.27 K, Glass, Small (less than 1 g) adiabatic calorimetry | 257.87 ± 1.3
213.77 K, Crystal, Vacuum adiabatic calorimetry | 174.86 ± 0.38
214.3 K, Crystal, Vacuum adiabatic calorimetry | 175.3 ± 0.38
214.46 K, Liquid, Small (less than 1 g) adiabatic calorimetry | 259.1 ± 1.2
215.25 K, Liquid, Small (less than 1 g) adiabatic calorimetry | 259.12 ± 1.2
215.66 K, Crystal, Vacuum adiabatic calorimetry | 176.2 ± 0.38
215.67 K, Metastable crystal, Small (less than 1 g) adiabatic calorimetry | 177.87 ± 0.91
215.84 K, Crystal, Vacuum adiabatic calorimetry | 176.33 ± 0.38
216.73 K, Liquid, Small (less than 1 g) adiabatic calorimetry | 260.04 ± 1.2
217.03 K, Crystal, Vacuum adiabatic calorimetry | 177.11 ± 0.38
217.09 K, Liquid, Small (less than 1 g) adiabatic calorimetry | 259.63 ± 1.2
217.24 K, Liquid, Small (less than 1 g) adiabatic calorimetry | 260 ± 1.2
217.9 K, Liquid, Small (less than 1 g) adiabatic calorimetry | 259.51 ± 1.2
217.92 K, Crystal, Vacuum adiabatic calorimetry | 177.82 ± 0.38
218.11 K, Metastable crystal, Small (less than 1 g) adiabatic calorimetry | 179.69 ± 0.92
218.4 K, Crystal, Vacuum adiabatic calorimetry | 178.04 ± 0.38
219.01 K, Liquid, Small (less than 1 g) adiabatic calorimetry | 260.43 ± 1.3
219.18 K, Liquid, Small (less than 1 g) adiabatic calorimetry | 259.88 ± 1.2
219.24 K, Liquid, Small (less than 1 g) adiabatic calorimetry | 260.35 ± 1.3
219.77 K, Crystal, Vacuum adiabatic calorimetry | 179.06 ± 0.38
219.98 K, Liquid, Small (less than 1 g) adiabatic calorimetry | 259.88 ± 1.2
219.99 K, Crystal, Vacuum adiabatic calorimetry | 179.17 ± 0.38
220.54 K, Metastable crystal, Small (less than 1 g) adiabatic calorimetry | 181.19 ± 0.92
221.14 K, Crystal, Vacuum adiabatic calorimetry | 179.92 ± 0.38
221.23 K, Liquid, Small (less than 1 g) adiabatic calorimetry | 260.68 ± 1.3
221.29 K, Liquid, Small (less than 1 g) adiabatic calorimetry | 260.8 ± 1.3
222.07 K, Crystal, Vacuum adiabatic calorimetry | 180.63 ± 0.38
222.07 K, Liquid, Small (less than 1 g) adiabatic calorimetry | 260.23 ± 1.2
222.51 K, Crystal, Vacuum adiabatic calorimetry | 180.9 ± 0.38
222.97 K, Metastable crystal, Small (less than 1 g) adiabatic calorimetry | 182.89 ± 0.93
223.23 K, Liquid, Small (less than 1 g) adiabatic calorimetry | 261 ± 1.3
223.57 K, Liquid, Small (less than 1 g) adiabatic calorimetry | 261.15 ± 1.3
223.88 K, Crystal, Vacuum adiabatic calorimetry | 181.95 ± 0.38
224.15 K, Crystal, Vacuum adiabatic calorimetry | 182.18 ± 0.38
224.16 K, Liquid, Small (less than 1 g) adiabatic calorimetry | 260.59 ± 1.2
225.24 K, Liquid, Small (less than 1 g) adiabatic calorimetry | 261.29 ± 1.3
225.25 K, Crystal, Vacuum adiabatic calorimetry | 182.95 ± 0.38
225.39 K, Metastable crystal, Small (less than 1 g) adiabatic calorimetry | 184.41 ± 0.94
225.86 K, Liquid, Small (less than 1 g) adiabatic calorimetry | 261.58 ± 1.3
226.23 K, Crystal, Vacuum adiabatic calorimetry | 183.69 ± 0.38
226.24 K, Liquid, Small (less than 1 g) adiabatic calorimetry | 260.96 ± 1.2
226.63 K, Crystal, Vacuum adiabatic calorimetry | 183.97 ± 0.38
227.24 K, Liquid, Small (less than 1 g) adiabatic calorimetry | 261.74 ± 1.3
227.8 K, Metastable crystal, Small (less than 1 g) adiabatic calorimetry | 186.11 ± 0.95
228 K, Crystal, Vacuum adiabatic calorimetry | 184.96 ± 0.39
228.15 K, Liquid, Small (less than 1 g) adiabatic calorimetry | 262.01 ± 1.3
228.31 K, Crystal, Vacuum adiabatic calorimetry | 185.39 ± 0.39
228.33 K, Liquid, Small (less than 1 g) adiabatic calorimetry | 261.35 ± 1.2
229.25 K, Liquid, Small (less than 1 g) adiabatic calorimetry | 262.21 ± 1.3
229.38 K, Crystal, Vacuum adiabatic calorimetry | 186.04 ± 0.39
230.21 K, Metastable crystal, Small (less than 1 g) adiabatic calorimetry | 187.89 ± 0.95
230.39 K, Crystal, Vacuum adiabatic calorimetry | 186.96 ± 0.39
230.42 K, Liquid, Small (less than 1 g) adiabatic calorimetry | 261.8 ± 1.2
230.44 K, Liquid, Small (less than 1 g) adiabatic calorimetry | 262.44 ± 1.3
230.75 K, Crystal, Vacuum adiabatic calorimetry | 187.19 ± 0.39
231.26 K, Liquid, Small (less than 1 g) adiabatic calorimetry | 262.65 ± 1.3
232.13 K, Crystal, Vacuum adiabatic calorimetry | 188.21 ± 0.39
232.47 K, Crystal, Vacuum adiabatic calorimetry | 188.55 ± 0.39
232.51 K, Liquid, Small (less than 1 g) adiabatic calorimetry | 262.24 ± 1.2
232.62 K, Metastable crystal, Small (less than 1 g) adiabatic calorimetry | 189.5 ± 0.96
232.74 K, Liquid, Small (less than 1 g) adiabatic calorimetry | 263.08 ± 1.3
233.01 K, Crystal, Vacuum adiabatic calorimetry | 189.36 ± 0.39
233.27 K, Liquid, Small (less than 1 g) adiabatic calorimetry | 263.01 ± 1.3
233.5 K, Crystal, Vacuum adiabatic calorimetry | 189.25 ± 0.39
234.55 K, Crystal, Vacuum adiabatic calorimetry | 190.14 ± 0.39
234.61 K, Liquid, Small (less than 1 g) adiabatic calorimetry | 262.58 ± 1.3
234.88 K, Crystal, Vacuum adiabatic calorimetry | 190.37 ± 0.39
235.03 K, Liquid, Small (less than 1 g) adiabatic calorimetry | 263.49 ± 1.3
235.28 K, Liquid, Small (less than 1 g) adiabatic calorimetry | 263.42 ± 1.3
235.72 K, Metastable crystal, Small (less than 1 g) adiabatic calorimetry | 191.63 ± 0.97
236.26 K, Crystal, Vacuum adiabatic calorimetry | 191.4 ± 0.39
236.63 K, Crystal, Vacuum adiabatic calorimetry | 191.86 ± 0.39
236.7 K, Liquid, Small (less than 1 g) adiabatic calorimetry | 263.12 ± 1.3
237.29 K, Liquid, Small (less than 1 g) adiabatic calorimetry | 263.79 ± 1.3
237.33 K, Liquid, Small (less than 1 g) adiabatic calorimetry | 263.86 ± 1.3
237.63 K, Crystal, Vacuum adiabatic calorimetry | 192.56 ± 0.39
238.14 K, Metastable crystal, Small (less than 1 g) adiabatic calorimetry | 193.62 ± 0.97
238.71 K, Crystal, Vacuum adiabatic calorimetry | 193.49 ± 0.39
238.79 K, Liquid, Small (less than 1 g) adiabatic calorimetry | 264.33 ± 1.3
239.01 K, Crystal, Vacuum adiabatic calorimetry | 193.7 ± 0.39
239.3 K, Liquid, Small (less than 1 g) adiabatic calorimetry | 264.2 ± 1.3
239.63 K, Liquid, Small (less than 1 g) adiabatic calorimetry | 264.39 ± 1.3
240.21 K, Liquid, Small (less than 1 g) adiabatic calorimetry | 263.92 ± 1.3
240.38 K, Crystal, Vacuum adiabatic calorimetry | 194.84 ± 0.4
240.53 K, Metastable crystal, Small (less than 1 g) adiabatic calorimetry | 195.14 ± 0.98
240.78 K, Crystal, Vacuum adiabatic calorimetry | 195.37 ± 0.4
240.89 K, Liquid, Small (less than 1 g) adiabatic calorimetry | 264.51 ± 1.3
241.32 K, Liquid, Small (less than 1 g) adiabatic calorimetry | 264.76 ± 1.3
241.76 K, Crystal, Vacuum adiabatic calorimetry | 196.04 ± 0.4
241.93 K, Liquid, Small (less than 1 g) adiabatic calorimetry | 265.02 ± 1.3
242.32 K, Liquid, Small (less than 1 g) adiabatic calorimetry | 264.51 ± 1.3
242.39 K, Crystal, Vacuum adiabatic calorimetry | 197.23 ± 0.4
242.86 K, Crystal, Vacuum adiabatic calorimetry | 197.07 ± 0.4
242.91 K, Metastable crystal, Small (less than 1 g) adiabatic calorimetry | 197.2 ± 0.99
243.14 K, Crystal, Vacuum adiabatic calorimetry | 197.19 ± 0.4
243.34 K, Liquid, Small (less than 1 g) adiabatic calorimetry | 265.19 ± 1.3
244.23 K, Liquid, Small (less than 1 g) adiabatic calorimetry | 265.58 ± 1.3
